Laboratory results: US6521283B1, “Non-thrombogenic surfaces” (Biocompatibles Limited, priority 1990, dated 2003)

Experiments:
platelets = test: quantitative platelet adhesion test (ATP luminometry) in fresh citrated whole human blood; type: cell-based
Method: A quantitative platelet adhesion test was carried out by immersing samples in fresh citrated whole human blood at room temperature for 30 minutes. Tubing samples were prepared in 3 cm lengths sealed at both ends (the blood being introduced into the sample by hypodermic needle), and constantly mixed using a spiral mixer (tests were carried out in triplicate). Blood used in this assay was obtained using the double syringe method.
After incubation the samples were washed in isotonic phosphate buffered saline (PBS) and extracted into 1% trichloro acetate (TCA) (w/v) in 2 mM ethylene diamine tetraacetic acid (EDTA) to liberate ATP from any platelets adhering to the walls of the tubing.
The amount of ATP present in the extractant was estimated using the LKB Pharmacia ATP assay kit and a luminometer.
The number of platelets adhering to the samples was estimated from a standard curve using ATP levels associated with a known number of platelets.

recalcified blood = test: in-use simulation: recalcified blood incubated in catheter segments, clot formation; design: species or system human; details: 15 cm catheter segment, frosted region, coated according to Example 2, 37° C., 150 minutes
Method: Three 15 cm segments of catheter (frosted region) coated according to Example 2 were prepared with the ends sealed using Eppendorf tubes. 40 ml of blood was collected from an adult volunteer into tri-sodium citrate (32 g/l) using the double syringe technique (the first 5 ml were discarded). 2 ml of 0.025 M calcium chloride in 0.15 M sodium chloride was added to 10 ml of citrated blood. 4 ml of recalcified blood was then added to each of the three catheter segments. The tubes were placed in a 37° C. incubator for 150 minutes. The samples were turned every 30 minutes. After this incubation the blood was drained from each of the catheters. They were then rinsed using PBS to remove any loosely bound material.

[1] = PE (polyethylene) treated at 10 mg/ml
[2] = PVC thoracic drain catheter, clear region, coated at 10 mg/ml (Example 2)
[3] = PVC thoracic drain catheter, frosted region, coated at 10 mg/ml (Example 2)
[4] = polystyrene petri dish spin-coated at 10 mg/ml (Example 4)

## CCCCCCCCCCCCCC(=O)OC[C@H](COP(=O)([O-])OCC[N+](C)(C)C)OC(=O)CCCCCCCCCCCCC [DMPC, dimyristoyl phosphatidyl choline]
platelets; [1]
  % Reduction (platelet adhesion vs uncoated PE): 94%
  platelets adhered, DONOR 1: 0.91 no. of platelets ×10^6 per 22 mm^2 area of material
  platelets adhered, DONOR 2: 1.38 no. of platelets ×10^6 per 22 mm^2 area of material
  platelets adhered, DONOR 3: 3.99 no. of platelets ×10^6 per 22 mm^2 area of material
  platelets adhered, X̄ (mean of donors): 2.09 no. of platelets ×10^6 per 22 mm^2 area of material
platelets; [2]
  % Reduction (platelet adhesion vs uncoated): 56.1%
  platelets adhered, DONOR 1: 15.26 platelets adhered ×10^6 per 3 cm lengths of catheters
  platelets adhered, DONOR 2: 8.09 platelets adhered ×10^6 per 3 cm lengths of catheters
  platelets adhered, DONOR 3: 16.78 platelets adhered ×10^6 per 3 cm lengths of catheters
  platelets adhered, X̄ (mean of donors): 13.38 platelets adhered ×10^6 per 3 cm lengths of catheters
platelets; [3]
  % Reduction (platelet adhesion vs uncoated): 95%
  platelets adhered, DONOR 1: 0.31 platelets adhered ×10^6 per 3 cm lengths of catheters
  platelets adhered, DONOR 2: 0.11 platelets adhered ×10^6 per 3 cm lengths of catheters
  platelets adhered, DONOR 3: 0.56 platelets adhered ×10^6 per 3 cm lengths of catheters
  platelets adhered, X̄ (mean of donors): 0.33 platelets adhered ×10^6 per 3 cm lengths of catheters
platelets; [4]
  % Reduction (platelet adhesion vs uncoated): 97%
  platelets adhered, DONOR 1: 1.20 no. of platelets ×10^6 adhered per petri dish (50 mm diameter)
  platelets adhered, DONOR 2: 0.26 no. of platelets ×10^6 adhered per petri dish (50 mm diameter)
  platelets adhered, DONOR 3: 3.78 no. of platelets ×10^6 adhered per petri dish (50 mm diameter)
  platelets adhered, X̄ (mean of donors): 1.75 no. of platelets ×10^6 adhered per petri dish (50 mm diameter)
Recalcified blood
  drainage of blood and clot remaining in catheter: Whole blood drained easily. One small clot remained attached to the surface
